The record followed here is patent publication US9868705B2, “Tetra-aryl cyclobutane inhibitors of androgen receptor action for the treatment of hormone refractory cancer” (The Board of Trustees of the University of Illinois, priority 2013, dated 2018).

Substitutions are numbered along the chain they refer to.

What is called IC50 is the concentration at which inhibition is half-maximal.

The test system of one experiment is androgen receptor. In words: Whole-cell competition binding assay using 3H-R1881. Particulars: whole cells; mutant AR and WT-AR.
For a further experiment, the target named is T1, AR (Homo sapiens, UniProt P10275).
T1 sequence (P10275 1-920): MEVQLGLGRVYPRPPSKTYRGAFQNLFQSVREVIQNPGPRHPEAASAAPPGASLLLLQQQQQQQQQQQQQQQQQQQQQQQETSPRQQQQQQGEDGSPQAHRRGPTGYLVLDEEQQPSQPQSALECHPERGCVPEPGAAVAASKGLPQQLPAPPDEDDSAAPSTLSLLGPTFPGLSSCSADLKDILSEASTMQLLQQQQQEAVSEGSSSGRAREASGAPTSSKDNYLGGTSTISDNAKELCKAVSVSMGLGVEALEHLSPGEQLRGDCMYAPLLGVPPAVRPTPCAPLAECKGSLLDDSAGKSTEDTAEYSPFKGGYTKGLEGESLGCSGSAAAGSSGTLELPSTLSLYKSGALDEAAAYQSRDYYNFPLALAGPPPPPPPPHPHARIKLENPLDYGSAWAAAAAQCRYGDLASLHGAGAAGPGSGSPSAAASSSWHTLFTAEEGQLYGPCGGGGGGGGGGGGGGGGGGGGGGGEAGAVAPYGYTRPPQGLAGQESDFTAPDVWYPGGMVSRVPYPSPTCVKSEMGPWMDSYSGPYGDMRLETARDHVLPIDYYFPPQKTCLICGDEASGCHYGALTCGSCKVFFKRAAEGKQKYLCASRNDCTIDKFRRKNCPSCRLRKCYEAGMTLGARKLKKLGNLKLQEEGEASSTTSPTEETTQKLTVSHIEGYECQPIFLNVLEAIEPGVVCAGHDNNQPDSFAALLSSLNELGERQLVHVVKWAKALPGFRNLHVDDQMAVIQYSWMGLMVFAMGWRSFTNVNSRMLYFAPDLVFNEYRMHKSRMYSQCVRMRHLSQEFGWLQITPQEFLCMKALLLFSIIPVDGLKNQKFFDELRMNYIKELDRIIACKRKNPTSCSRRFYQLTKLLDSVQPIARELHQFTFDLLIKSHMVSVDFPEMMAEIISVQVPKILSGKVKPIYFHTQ
In words: AR relative binding affinity (RBA).

The target of another experiment is T2, wild type AR (Homo sapiens, UniProt P10275).
T2 construct: expressed in transfected cells; host or cells: CV-1
T2 sequence (P10275 1-920): T1 sequence (P10275 1-920)
The experiment is described as follows: MMTV-luciferase transcription assay in CV-1 cells, wild type AR. In kind it is cell-based. Particulars: wild type AR; for MMTV transcription assay in CV-1 cells WT (IC50 / inhibition): values given as powers of ten without unit, or in words. The source says:
(§1) These compounds were screened using an AR-responsive MMTV transcription assay in CV-1 cells, utilizing both wild type and T877A (LNCaP) AR. […]

The target in the next experiment is T3, T877A (LNCaP) AR (Homo sapiens, UniProt P10275, T878A).
T3 construct: expressed in transfected cells; host or cells: CV-1
T3 sequence (P10275 1-920 T878A): T1 sequence (P10275 1-920) with T878A
In words: MMTV-luciferase transcription assay in CV-1 cells, T877A AR. It counts as cell-based. Particulars: for AR antagonism, potency in words (structure-activity discussion): MMTV transcription assay in CV-1 cells, compared with 1; for MMTV transcription assay in CV-1 cells T877A (IC50 / inhibition) / IC50: T877A AR; for MMTV transcription assay in CV-1 cells T877A (IC50 / inhibition): values given as powers of ten without unit, or in words; for IC50: values given in μM, read-out: MMTV transcription assay in CV-1 cells T877A (IC50).
From the text: as §1

For the compound `CC(C)CNc1cc([C@H]2[C@@H](c3ccccc3)[C@H](c3cc(NCC(C)C)nc(NCC(C)C)n3)[C@@H]2c2ccccc2)nc(NCc2cccc3ccccc23)n1` [CB-6], the “competition with 3H-R1881 for binding to AR” value in the experiment with androgen receptor is “compete with 3H-R1881”.

In the case of `COc1cc([C@H]2[C@H](c3ccccc3)[C@@H](c3cc(OC)nc(OC)n3)[C@H]2c2ccccc2)nc(OC)n1` [CB-31], the “AR RBA” value at AR worked out at 0.046%.

For `COc1cc([C@H]2[C@H](c3ccc(Br)cc3)[C@@H](c3cc(OC)nc(OC)n3)[C@H]2c2ccc(Br)cc2)nc(OC)n1` [DMP-10], the “MMTV transcription assay in CV-1 cells WT (IC50 / inhibition)” value on wild type AR is recorded as “No inhibition”. Also, on T877A (LNCaP) AR, the “AR antagonism, potency in words (structure-activity discussion)” value (from here on “AR antagonism, potency in words”) is “inactive” and the “MMTV transcription assay in CV-1 cells T877A (IC50 / inhibition)” value was “No inhibition”.

As to `Clc1cc([C@H]2[C@H](c3cccs3)[C@H](c3cc(Cl)nc(Cl)n3)[C@H]2c2cccs2)nc(Cl)n1` [DMP-28], the “MMTV transcription assay in CV-1 cells WT (IC50 / inhibition)” value at wild type AR is reported as “Incomplete inhibition at 10^−5 Incomplete inhibition at 10^−5”. In addition, on T877A (LNCaP) AR, the “AR antagonism, potency in words” value is reported as “retained parent compound potency” and the half-maximal inhibitory concentration (IC50) amounted to 2.6 µM.

As for `COc1cncc([C@@H]2[C@@H](c3ccccc3)[C@@H](c3ccccc3)[C@@H]2c2cncc(OC)n2)n1` [DPM-15], at wild type AR, the “MMTV transcription assay in CV-1 cells WT (IC50 / inhibition)” value was “No inhibition”. Moreover, the “AR antagonism, potency in words” value on T877A (LNCaP) AR was “decreased activity”.

For the compound `CSc1cc([C@H]2[C@H](c3ccccc3)[C@@H](c3cc(SC)nc(SC)n3)[C@H]2c2ccccc2)nc(SC)n1` [CB-35], on AR, the “AR RBA” value worked out at 0.027%.

Take `Clc1cc([C@H]2[C@H](c3ccc(-c4ccccc4)cc3)[C@H](c3cc(Cl)nc(Cl)n3)[C@H]2c2ccc(-c3ccccc3)cc2)nc(Cl)n1` [DPM-27]: the “MMTV transcription assay in CV-1 cells WT (IC50 / inhibition)” value on wild type AR is on record as “No inhibition”. For the same compound, on T877A (LNCaP) AR, the “AR antagonism, potency in words” value was “inactive” and the “MMTV transcription assay in CV-1 cells T877A (IC50 / inhibition)” value is “No inhibition”.

For the compound `CCc1cc([C@H]2[C@H](c3ccccc3)[C@H](c3cc(CC)nc(CC)n3)[C@H]2c2ccccc2)nc(CC)n1` [CB-50], the “AR RBA” value at AR was determined as 0.029%.

Turning to `COc1nccc([C@H]2[C@H](c3ccccc3)[C@@H](c3ccnc(OC)n3)[C@H]2c2ccccc2)n1` [DMP-6], the “MMTV transcription assay in CV-1 cells WT (IC50 / inhibition)” value on wild type AR is listed as “No inhibition No inhibition”. For the same compound, the “MMTV transcription assay in CV-1 cells T877A (IC50 / inhibition)” value at T877A (LNCaP) AR is “No inhibition No inhibition”.

For `Clc1cc([C@H]2[C@H](c3ccccc3)[C@H](c3cc(Cl)ncn3)[C@H]2c2ccccc2)ncn1` [DPM-26], the “MMTV transcription assay in CV-1 cells WT (IC50 / inhibition)” value at wild type AR was “Incomplete inhibition at 10^−5”. At T877A (LNCaP) AR, the “AR antagonism, potency in words” value was “decreased potency” and the half-maximal inhibitory concentration (IC50) amounted to 9 µM.

As for `COc1cc([C@H]2[C@H](c3ccsc3)[C@H](c3cc(OC)nc(OC)n3)[C@H]2c2ccsc2)nc(OC)n1` [DPM-8], the “MMTV transcription assay in CV-1 cells WT (IC50 / inhibition)” value at wild type AR is reported as “Incomplete inhibition at 10^−5 Incomplete inhibition at 10^−5”. The “AR antagonism, potency in words” value at T877A (LNCaP) AR is reported as “retained parent compound potency”.

For the compound `COc1cc([C@H]2[C@@H](c3ccccc3)[C@H](c3cc(=O)[nH]c(=O)[nH]3)[C@@H]2c2ccccc2)nc(OC)n1` [CB-45], at AR, the “AR RBA” value was 0.087%.

As for `Cc1cc([C@H]2[C@H](c3ccccc3)[C@H](c3cc(C)nc(Cl)n3)[C@H]2c2ccccc2)nc(Cl)n1` [DPM-30], the 50% inhibitory concentration (IC50) at wild type AR (values given in μM, read-out: MMTV transcription assay in CV-1 cells WT (IC50)) came out at 17 µM; at T877A (LNCaP) AR, 2.89 µM. Further, the “AR antagonism, potency in words” value on T877A (LNCaP) AR was “comparable potency to 1”.

Regarding `COc1cc([C@H]2[C@@H](c3ccccc3)[C@@H](c3cc(=O)[nH]c(=O)[nH]3)[C@@H]2c2ccccc2)nc(OC)n1` [CB-46], on AR, the “AR RBA” value was found to be 0.065%.

With `COc1cncc([C@@H]2[C@@H](c3ccccc3)[C@@H](c3ccccc3)[C@@H]2c2cncc(OC)n2)n1` [DPM-16], the “MMTV transcription assay in CV-1 cells WT (IC50 / inhibition)” value at wild type AR was “No inhibition”. Further, at T877A (LNCaP) AR, the “AR antagonism, potency in words” value was “decreased activity” and the “MMTV transcription assay in CV-1 cells T877A (IC50 / inhibition)” value is “Slight inhibition at 10^−5”.

Turning to `O=c1cc([C@H]2[C@H](c3ccccc3)[C@@H](c3cc(=O)[nH]c(=O)[nH]3)[C@H]2c2ccccc2)[nH]c(=O)[nH]1` [CB-48], the “AR RBA” value on AR came out at 0.023%.

For the compound `COc1cncc([C@H]2[C@H](c3ccccc3)[C@@H](c3cncc(OC)n3)[C@H]2c2ccccc2)n1` [DPM-17], on T877A (LNCaP) AR, the “AR antagonism, potency in words” value is on record as “decreased activity”.

With `c1ccc([C@@H]2[C@H](c3ccccc3)[C@@H](c3cnccn3)[C@H]2c2cnccn2)cc1` [DPM-12], the “MMTV transcription assay in CV-1 cells WT (IC50 / inhibition)” value on wild type AR was “No inhibition No inhibition”. Further, the “MMTV transcription assay in CV-1 cells T877A (IC50 / inhibition)” value on T877A (LNCaP) AR is reported as “No inhibition”.

On to `c1ccc([C@H]2[C@H](c3ccccn3)[C@H](c3ccccc3)[C@H]2c2ccccn2)cc1` [DMP-13], for which, at wild type AR, the “MMTV transcription assay in CV-1 cells WT (IC50 / inhibition)” value was “No inhibition No inhibition”.

Consider `c1ccc([C@H]2[C@H](c3cnccn3)[C@H](c3ccccc3)[C@@H]2c2cnccn2)cc1` [DPM-11/20], for which the “MMTV transcription assay in CV-1 cells WT (IC50 / inhibition)” value at wild type AR is given as “No inhibition No inhibition”. The “MMTV transcription assay in CV-1 cells T877A (IC50 / inhibition)” value on T877A (LNCaP) AR is listed as “Mild inhibition at~10^−5”.

As for `Clc1cc([C@@H]2[C@H](c3cc(Cl)nc(Cl)n3)[C@@H](c3cccs3)[C@H]2c2cccs2)nc(Cl)n1` [DMP-29], at wild type AR, the “MMTV transcription assay in CV-1 cells WT (IC50 / inhibition)” value is “Incomplete inhibition at 10^−5 Incomplete inhibition at 10^−5”. Also, on T877A (LNCaP) AR, the “AR antagonism, potency in words” value was “retained parent compound potency” and the “MMTV transcription assay in CV-1 cells T877A (IC50 / inhibition)” value is “Incomplete inhibition at 10^−5”.

On to `COc1nccc([C@H]2[C@H](c3ccccc3)[C@H](c3ccnc(OC)n3)[C@H]2c2ccccc2)n1` [DPM-5], for which the “MMTV transcription assay in CV-1 cells WT (IC50 / inhibition)” value on wild type AR is “No inhibition No inhibition”. The “MMTV transcription assay in CV-1 cells T877A (IC50 / inhibition)” value on T877A (LNCaP) AR is “No inhibition No inhibition”.

Take `CSc1cc([C@H]2[C@H](c3ccccc3)[C@H](c3cc(SC)nc(SC)n3)[C@H]2c2ccccc2)nc(SC)n1` [CB-34]: the “AR RBA” value on AR stood at 0.002%.

In the case of `c1ccc([C@@H]2[C@H](c3ccccc3)[C@@H](c3ccccn3)[C@H]2c2ccccn2)cc1` [DPM-14], at wild type AR, the “MMTV transcription assay in CV-1 cells WT (IC50 / inhibition)” value is on record as “No inhibition No inhibition”. For the same compound, at T877A (LNCaP) AR, the “MMTV transcription assay in CV-1 cells T877A (IC50 / inhibition)” value is given as “No inhibition”.

For the compound `COc1cncc([C@H]2[C@H](c3ccccc3)[C@H](c3cncc(OC)n3)[C@H]2c2ccccc2)n1` [DPM-18], on wild type AR, the “MMTV transcription assay in CV-1 cells WT (IC50 / inhibition)” value is “No inhibition”. Moreover, the “AR antagonism, potency in words” value on T877A (LNCaP) AR is reported as “decreased activity”.

Regarding `CCCNc1cc([C@H]2[C@H](c3ccccc3)[C@@H](c3cc(NCCC)nc(NCCC)n3)[C@H]2c2ccccc2)nc(NCCC)n1` [CB-1], the “competition with 3H-R1881 for binding to AR” value in the experiment with androgen receptor was “compete with 3H-R1881”.
